Measured values published in PubChem BioAssay AID1996.
Converted amounts (≈) assume the structure as drawn.

Settings: buffer; pH 7.4; 200.0 µM

| SMILES | solubility kinetic [µg/mL] |
| --- | --- |
| Cn1c2c(c(=O)c3ccccc31)CCCC2 | > 32 |
| O=C(Nc1ccncc1)Nc1cccc(Cl)c1Cl | 24.1 (≈ 85.4 µM) |
| COc1ccc(NC(=O)c2cc(-c3ccccc3)on2)cc1OC | < 0.3 |
| CCCCNC(=S)N1CCN(c2ccccc2Cl)CC1 | 13.1 (≈ 42 µM) |
| Cc1ccnc(NC(=O)CCNC(=O)c2ccccc2Cl)c1 | > 47.7 |
| Cc1ccccc1N1C(=O)CSC1=C(C#N)C#N | > 38.3 |
| COC(=O)c1c(-c2ccc(F)cc2)csc1NC(=O)C1CCCO1 (stereo not given) | 5.2 (≈ 14.9 µM) |
| Cc1onc(-c2ccccc2)c1-c1ccc(S(N)(=O)=O)cc1 | > 47.2 |
| O=C(C[n+]1ccccn1)c1ccccc1.[Br-] | > 41.9 |
| Cc1ccc(NC(=O)NCCCN2CCCC2=O)cc1C | > 43.4 |
| CCCCNC(=O)C(=O)NCc1ccncc1 | 32.8 (≈ 139 µM) |
| COc1ccc(CNS(=O)(=O)NCc2ccccc2F)cc1 | 22.3 (≈ 68.7 µM) |
| O=C(COC(=O)c1cccc2ccccc12)NCC1CCCO1 (stereo not given) | > 47 |
| COc1ccc(C2NC(=O)C(C#N)=C(S)N2c2ccccc2)cc1OC (stereo not given) | > 55.1 |
| COc1ccc(C(=O)NCC(=O)OCC(=O)NC2CCCCCC2)cc1OC | > 58.9 |
| CCCNc1nc(Cl)nc(NC(C)(C)C)n1 | 17.1 (≈ 70.2 µM) |
| C/C(=N\S(=O)(=O)c1ccc(C)cc1)NC(=S)Nc1ccccc1 | 2.1 (≈ 6.04 µM) |
| Br.C1=C(c2ccco2)N2CCN=C2S1 | 38.8 |
| COc1ccc(OCCC(=O)OCC(=O)c2ccc[nH]2)cc1 | > 45.5 |
| COC(=O)C(O)(c1ccc(N(C)C)cc1)C(F)(F)F (stereo not given) | 38 (≈ 137 µM) |
| Cc1ccc2c(CN3CCCCC3C)cc(=O)oc2c1.Cl (stereo not given) | 35.6 |
| COc1ccc(C(=O)Nc2cc(S(=O)(=O)N3CCCC3)ccc2Cl)cc1 | 9.2 (≈ 23.3 µM) |
| S=C(c1ccc(Br)cc1)N1CCCC1 | > 40.5 |
| COc1ccc(C(C)=O)cc1COC(=O)[C@H](Cc1ccccc1)NC(=O)c1ccco1 | 8 (≈ 19 µM) |

| SMILES | solubility kinetic [µg/mL] |
| --- | --- |
| Cc1ccccc1NC1(C#N)CCCCC1 | 3.6 (≈ 16.8 µM) |
| CCCCOc1ccc(/C=C(\C(=O)O)c2ccc(S(=O)(=O)N3CCCC3)s2)cc1 | > 65.3 |
| O=C1CC(Cc2ccc(Cl)cc2)C(=O)N1c1cc(Cl)ccn1 (stereo not given) | 29.4 (≈ 87.7 µM) |
| COCc1cc(=O)[nH]c(SCCS(=O)(=O)c2ccc(C)cc2)n1 | > 53.2 |
| Cc1ccc(C)c(N2C(=O)C3C4C=CC(CC4)C3C2=O)c1 (stereo not given) | 14.9 (≈ 53 µM) |
| CCS(=O)(=O)NCCc1csc(-c2ccc(OC)c(OC)c2)n1 | 53.2 (≈ 149 µM) |
| Cn1cc(-c2ccccc2C(N)=O)c(=O)c2cc(Cl)ccc21 | 46.3 (≈ 148 µM) |
| Cc1cc2c(cc1C)N(Cc1ccc(Cl)cc1)C1=NCCCN12 | > 48.9 |
| Cn1c(=O)c2c(nc(N3CCCC3)n2C)n(C)c1=O | > 39.5 |
| CCN(CC)S(=O)(=O)c1ccc(C(=O)O)cc1 | 30.4 (≈ 118 µM) |
| CSc1ccccc1C(=O)NC1CCCc2ccccc21 (stereo not given) | 11.7 (≈ 39.3 µM) |
| O=C(Nc1nonc1-c1ccc(Cl)cc1)c1ccco1 | > 43.5 |
| O=C(NCCCn1ccnc1)Nc1ccc2c(c1)OCO2 | > 43.2 |
| COc1cnc(NS(=O)(=O)c2ccc(N)cc2)nc1 | > 42 |
| COc1ccccc1Cn1c(CO)nc2ccccc21 | 37.4 (≈ 139 µM) |
| Cc1cc(N2CCCCC2C)nc(-c2ccccc2O)n1 (stereo not given) | 0.5 (≈ 1.76 µM) |
| CSc1ccccc1NC(=O)Cn1c([N+](=O)[O-])cnc1C | 41.5 (≈ 135 µM) |
| CCOC(=O)CNC(=O)CSc1nc(-c2ccccc2)ns1 | > 50.6 |
| CCn1ccnc1CN(C)Cc1nc(-c2ccccc2)no1 | 31.7 (≈ 107 µM) |
| O=[N+]([O-])c1ccccc1/C=N/OCc1ccccc1 | 2.6 (≈ 10.1 µM) |
| Cc1ccc(S(=O)(=O)N(C)C)cc1NC(=O)C1CCC1 | 39.7 (≈ 134 µM) |
| O=c1c2cc([N+](=O)[O-])ccc2nc2n1CCC2 | > 34.7 |
| CN(CC(=O)Nc1ccc(F)c(F)c1F)C(=O)C1CCCCC1 | > 49.3 |
| COc1cccc(NC(=O)N2CCCC2C(=O)NCc2ccco2)c1 (stereo not given) | 47.6 (≈ 139 µM) |

| SMILES | solubility kinetic [µg/mL] |
| --- | --- |
| COc1ccc(NC(=O)CN2C(=O)COc3ccccc32)cc1OC | 3 (≈ 8.76 µM) |
| CSc1nc(N2CCOCC2)c2sccc2n1 | 38.6 (≈ 144 µM) |
| ClC1(Cl)CC1CSc1nc2ccccc2[nH]1 (stereo not given) | 39.8 (≈ 146 µM) |
| CC(CCc1ccccc1)NC(=O)Cc1ccc(Br)cc1 (stereo not given) | 2.5 (≈ 7.22 µM) |
| CCC(CC)C(=O)Nc1ccncc1 | 10.9 (≈ 56.7 µM) |
| O=C(NNC(=O)C1CCN(c2ncccn2)CC1)c1ccncc1 | > 49 |
| COc1ccc(N2CCN(C(=O)CN3c4cccc5cccc(c45)S3(=O)=O)CC2)cc1 | 2.3 (≈ 5.26 µM) |
| Cc1cc(OCC(=O)NCCc2c[nH]c3ccccc23)c2c(C)cc(=O)oc2c1 | < 0.4 |
| CCN(CC)S(=O)(=O)c1ccc(N2CCCC2)c(NC(=O)c2ccc([N+](=O)[O-])o2)c1 | 49.4 (≈ 113 µM) |
| COc1ccc(OCCCC(=O)Nc2nc(C)c(C(C)=O)s2)cc1 | 1.3 (≈ 3.73 µM) |
| CCN1CCN(C(=O)c2cc3ccc(OC)cc3[nH]2)CC1 | > 43.1 |
| COC(=O)C1CCN(C(=O)COC(=O)c2cc(S(=O)(=O)N3CCOCC3)ccc2C)CC1 | > 70.3 |
| O=C(Nc1ccccc1C(=O)N1CCCCC1)c1ccco1 | > 44.8 |
| O=C(O)c1cccc(-n2c(O)c(C=C3N=c4ccccc4=N3)sc2=S)c1 | > 57.2 |
| O=Cc1c(-c2ccc(F)cc2)nc2ccccn12 | 2.5 (≈ 10.4 µM) |
| Cc1ccc(N2CCN(C(=S)Nc3ccccc3C)CC2)cc1 | 0.6 (≈ 1.84 µM) |
| CC(C)C[C@H](NC(=O)NC1CCCc2ccccc21)C(=O)O (stereo not given in full) | > 45.7 |
| CNC(=O)c1csc(-c2cccs2)n1 | 33.3 (≈ 148 µM) |
| COC(=O)c1ccc(CNC(=O)COC(=O)/C=C/c2ccc(O)c(OC)c2)cc1 | 13.4 (≈ 33.6 µM) |
| COc1ccc(C(C)=O)cc1CN1C(=O)NC2(CCCC2)C1=O | 44.9 (≈ 142 µM) |
| CN(C)c1ccc(C2NC(=O)c3ccccc3N2)cc1 (stereo not given) | 8.8 (≈ 32.9 µM) |
| COc1ccc(NC(=O)COC(=O)C2CCN(C(=O)c3ccc(Cl)cc3)CC2)c([N+](=O)[O-])c1 | 22.4 (≈ 47.1 µM) |
| CN(CC(=O)NCc1cccnc1)S(=O)(=O)c1ccccc1 | > 47.9 |
| CN1CCCN(S(=O)(=O)c2ccccc2)CC1.Cl | 39.8 |

| SMILES | solubility kinetic [µg/mL] |
| --- | --- |
| CC1(C(=O)O)CCC(C(=O)Nc2ccc(Cl)c(Cl)c2)C1(C)C (stereo not given) | > 51.6 |
| O=C(COC(=O)c1cccnc1Cl)NC1CCCCCC1 | > 46.6 |
| O=C(NN=C1CCCC1)c1ccc(Cl)cc1 | > 35.5 |
| COc1ccc(-c2csc3ncnc(NCCO)c23)cc1 | > 45.2 |
| CC(C)CC(=O)Nc1ccc(S(=O)(=O)N2CCCC2)cc1 | > 46.6 |
| Cc1ccc(OCC(=O)O/N=C(\N)c2cccc([N+](=O)[O-])c2)cc1C | 1.8 (≈ 5.24 µM) |
| COc1ccccc1N1CCN(c2ccc([N+](=O)[O-])cn2)CC1 | 16.2 (≈ 51.5 µM) |
| O=C(Cc1ccccc1[N+](=O)[O-])NCCCc1ccccc1 | 43.2 (≈ 145 µM) |
| Cc1cc(NS(=O)(=O)c2ccc(NC(=O)COc3ccc(C#N)cc3)cc2)nc(C)n1 | > 65.6 |
| CCCCCC1C/C(=N\O)C=C(C)C1C(=O)OC (stereo not given) | > 38 |
| COc1ccccc1CNC(=O)C1CCCC1 | > 35 |
| CCOC(=O)c1oc2nc3c(cc2c1N)CCCC3 | 10.4 (≈ 40 µM) |
| Fc1ccc2nc(C(F)(F)F)cc(N3CCOCC3)c2c1 | 11.3 (≈ 37.6 µM) |
| CC1=CC(C)(C)N2C(=O)C(=Nc3ccc(O)cc3)c3cccc1c32 | 9.4 (≈ 29.5 µM) |
| Cc1ccc(-c2csc(NC(=O)CN3CCOCC3)n2)cc1 | > 47.6 |
| CCCCNC(=O)c1cc(-c2ccc3c(c2)OCO3)on1 | 0.3 (≈ 1.04 µM) |
| COc1ccc(CC(=O)NCCCc2ccccc2)cc1OC | > 47 |
| S=c1nc[nH]c2nc[nH]c12 | 22.5 (≈ 148 µM) |
| Cc1cccc(N2CCN(C(=O)c3cccc(S(=O)(=O)N4CCCCC4)c3)CC2)c1C | 2.9 (≈ 6.57 µM) |
| O=C(OCC(=O)N1CCOCC1)c1cccc(F)c1 | > 40.1 |
| COc1ccc(C(=O)NCC(O)CN2CCOCC2)cc1[N+](=O)[O-] (stereo not given) | 38.9 (≈ 115 µM) |
| CNC(=S)N1CCc2cc(OC)c(OC)cc2C1 | > 40 |
| CCC(=O)c1c(NC(CC)CO)cc(C)oc1=O (stereo not given) | > 38 |
| Cc1ccc(C(=O)O)cc1NC(=O)C1=CSCCO1 | > 41.9 |

| SMILES | solubility kinetic [µg/mL] |
| --- | --- |
| O=C(NC(=S)N1CCc2ccccc21)C1CCC1 | > 39.1 |
| Cn1cc(C=O)c2cc(F)ccc21 | > 26.6 |
| O=C(Nc1ccc(Cl)cc1F)C1CC1c1ccccc1 (stereo not given) | 1.4 (≈ 4.83 µM) |
| Nc1c(C(=O)N2CCCCCC2)oc2ccccc12 | > 38.7 |
| COc1ccc(/C=C/C(=O)O)cc1S(=O)(=O)NCc1ccco1 | 48.8 (≈ 145 µM) |
| CC[N+](C)(CC)CCC(c1ccccc1)C1CCCCC1 (stereo not given) | 29.5 |
| CCOc1ccc(/C=C/c2[nH]c(=O)[nH]c(=O)c2[N+](=O)[O-])cc1 | 13.2 (≈ 43.5 µM) |
| COc1ccc2cc(Br)ccc2c1CC(=O)N1CCCC1 | 3.2 (≈ 9.19 µM) |
| O=S(=O)(c1ccc(Br)cc1)N1CCCC1 | 41.5 (≈ 143 µM) |
| CN1CCN(Cc2c(F)cccc2Cl)CC1 | 24.2 (≈ 99.7 µM) |
| COc1ccc2oc(=O)c(C(=O)NCc3ccc(C)cc3)cc2c1 | < 0.7 |
| CC(=O)Nc1ccc(NC(=O)c2cccc(S(=O)(=O)N3CCCCCC3)c2)cc1 | 5.3 (≈ 12.8 µM) |
| COCCNC(=S)Nc1ccccc1Cc1ccccc1 | 13.7 (≈ 45.6 µM) |
| CC(=O)NC1(c2ccccc2)CCN(CC(=O)N2CCC(C)CC2)CC1 | > 53.6 |
| CCc1ccc(OCCOCCN2CCN(C)CC2)cc1.O=C(O)C(=O)O | 54 |
| COc1ccc(C2C(C#N)=C(N)Oc3cc(N)ccc32)cc1 (stereo not given) | 27.4 (≈ 93.4 µM) |
| O=C(Nc1cnccc1C(F)(F)F)NC1CCCCC1 | 43.1 (≈ 150 µM) |
| COc1cc2c(cc1OC)C(C)N(C(=O)Nc1ccccc1)CC2 (stereo not given) | 39 (≈ 119 µM) |
| N#Cc1c(SCC(=O)O)nc(N2CCOCC2)c2c1CCCC2 | > 50 |
| Cc1ccc(NC(=S)NC(=O)c2cncc(Br)c2)c(C)c1 | 4.5 (≈ 12.4 µM) |
| O=C(/C=C/c1ccc(F)cc1)N1CCCc2ccccc21 | 18.5 (≈ 65.8 µM) |
| CC(C)c1ccc(OC(=O)c2ccc3c(=O)n4c(nc3c2)CCC4)cc1 | 8.3 (≈ 23.8 µM) |
| COc1cc(/C=C(\C#N)C(=O)N2CCCCC2)ccc1O | > 42.9 |
| COc1ccc(C(=O)NCCCNC(=O)c2ccco2)cc1OC | > 49.9 |
